This note sets out measurements from patent publication US5294603A, “Pharmaceutical compositions containing didemnins” (The Board of Trustees of The University of Illinois, priority 1992, dated 1994).

Series [1] has as its system Visna virus (VIV). Format: cell-based. More on the design: key to % Protection / VIV Protection: I, indeterminate.
In series [2] the test system is L1210 murine leukemia cells. Particulars: Table 9.
For series [3], the system named is L1210. The experiment in a line: L1210 cytotoxicity, inhibition at fixed doses (Table 10). It counts as cell-based, murine.
The subject of series [4] is L1210. Particulars: for cytotoxicity (result in words): Table 1 footnote and text.
Series [5] concerns L1210 cells.
The subject of series [6] is Nb2 cells, rat T-cell node lymphoma. The series can be described thus: Competitive binding with [3H]didemnin B to Nb2 cells. The conditions noted are these: 3 h at 37° C. The procedure:
The immunosuppressive assay was performed by measuring competitive binding of tested compounds with [^3 H]didemnin B to Nb2 cells, rat T-cell node lymphoma. See, Russell, D. H., et al., J. Immunology, 1987, 138, 276-284.
^a Competing didemnins incubated with approximately 25 ng of [^3

Setting [7] is: dose 25 ng/mL, tested 4/18/1991.
Setting [8] is: dose 250 ng/mL, tested 4/18/1991.
[9] abbreviates: dose 25 ng/mL, tested 4/22/1990.
[10] abbreviates: dose 250 ng/mL, tested 4/22/1990.

≈ marks a conversion by molar mass, not a printed value. Where two headings read alike, the source gives them in different places. Numbered stars: 1 amine (or outer) side, 2 acyl side, 3 side chain; on linkers, the order of the positions; unused ones are H or OH. Bridge positions count the residues as written; N and C are the ends. Square brackets hold non-standard residues; d marks the D form. Peptide text beside a SMILES is read from it. * marks the point of attachment. X1 = CC[C@H](C)[C@@H](N[*:1])[C@@H](O)CC(=O)O[C@H](C(=O)[C@H](C)C(=O)[*:2])C(C)C; X9 = CCC(C)C(N[*:1])C(O)CC(=O)OC(C(=O)C(C)C(=O)[*:2])C(C)C; NMeY = CN[CH](Cc1ccc(O)cc1)C(=O)O; NMeCha = CN[C@@H](CC1CCCCC1)C(=O)O; Stearoyl = CCCCCCCCCCCCCCCCCC(=O)*; X8 = CC(C(=O)*)N1C(=O)c2ccccc2C1=O; dNMeL = CN[C@H](CC(C)C)C(=O)O; pGlu = O=C1CC[C@@H](C(=O)O)N1; Lauroyl = CCCCCCCCCCCC(=O)*; NMeL = CN[CH](CC(C)C)C(=O)O; X5 = O=C(Cc1ccccc1)C(=O)*; Octanoyl = CCCCCCCC(=O)*; Hexanoyl = CCCCCC(=O)*; Pentanoyl = CCCCC(=O)*; Lac = C[C@H](O)C(=O)O

`CC[C@H](C)[C@H]1NC(=O)[C@@H](NC(=O)[C@@H](CC(C)C)N(C)C(=O)[C@@H]2CCCN2C(=O)[C@H](C)OC(=O)[C@H](CCC(N)=O)NC(=O)[C@@H]2CCC(=O)N2)[C@@H](C)OC(=O)[C@H](Cc2ccc(OC)cc2)N(C)C(=O)[C@@H]2CCCN2C(=O)[C@H](CC(C)C)NC(=O)[C@@H](C)C(=O)[C@H](C(C)C)OC(=O)C[C@@H]1O` [Didemnin M (12), Didemnin M] ([pGlu]Q[Lac]P[dNMeL]T[X1]LP[NMeY](Me); ester 6-C): the “VIV Protection” value in series [1] is -73. Further, the “Cytotoxicity L1210 IC50” value in series [2] came out at 0.4 ng/mL.

As to `CCC(C)C1NC(=O)C(NC(=O)C(CC(C)C)N(C)C(=O)C2CCCN2C(=O)C(C)N2C(=O)c3ccccc3C2=O)C(C)OC(=O)C(Cc2ccc(OC)cc2)N(C)C(=O)C2CCCN2C(=O)C(CC(C)C)NC(=O)C(C)C(=O)C(C(C)C)OC(=O)CC1O` (centres unmarked) [Phthalimidedidemnin B (82), Phthalimide didemnin B] (X8-P[NMeL]T[X9]LP[NMeY](Me); ester 3-C; configuration not given here), the “Inhibition (%)” value in series [3] (setting [7]) is given as 98%; in series [3] (setting [8]), 99%.

Take N-palmitoyl didemnin A: the “cytotoxicity (result in words)” value in series [4] is “inactive”.

For `CCCCC(=O)N(C)[C@H](CC(C)C)C(=O)N[C@@H]1C(=O)N[C@H]([C@@H](C)CC)[C@@H](O)CC(=O)O[C@@H](C(C)C)C(=O)[C@H](C)C(=O)N[C@@H](CC(C)C)C(=O)N2CCC[C@H]2C(=O)N(C)[C@@H](Cc2ccc(OC)cc2)C(=O)O[C@@H]1C` [N^a -Pentanoyl-, N-pentanoyl didemnin A] (Pentanoyl-[dNMeL]T[X1]LP[NMeY](Me); ester 2-C), in series [4], the “cytotoxicity (result in words)” value is “retained the cytotoxicity of didemnin B”. For the same compound, the “Cytotoxicity percent L1210 inhibition” value in series [4] (dose 5 ng/mL) is on record as 56%; in series [4] (dose 12.5 ng/mL), 81%; in series [4] (dose 25 ng/mL) it was 91%.

`CC[C@H](C)[C@H]1NC(=O)[C@@H](NC(=O)[C@@H](CC(C)C)N(C)C(=O)[C@@H]2CCCN2C(=O)[C@H](C)O)[C@@H](C)OC(=O)[C@H](CC2CCCCC2)N(C)C(=O)[C@@H]2CCCN2C(=O)[C@H](CC(C)C)NC(=O)[C@@H](C)C(=O)[C@H](C(C)C)OC(=O)C[C@@H]1O` [[H6 -N-MePhe^5] didemnin B (118), [Hexahydro-N-MePhe^5]didemnin B]: the “Inhibition (%)” value in series [3] (setting [7]), in series [3] (setting [9]), in series [3] (setting [8]) and in series [3] (setting [10]) was 99% each time.

Regarding `CC[C@H](C)[C@H]1NC(=O)[C@@H](NC(=O)[C@@H](CC(C)C)N(C)C(=O)[C@@H]2CCCN2C(=O)[C@H](C)O)[C@@H](C)OC(=O)[C@H](CC2CCC(OC)CC2)N(C)C(=O)[C@@H]2CCCN2C(=O)[C@H](CC(C)C)NC(=O)[C@@H](C)C(=O)[C@H](C(C)C)OC(=O)C[C@@H]1O` (some centres unmarked) [[H6 Me2 Tyr^5]didemnin B (116), [HexahydroMe2 Tyr^5]didemnin B], the “Inhibition (%)” value stood at 99% in series [3] (setting [7]), 98% in series [3] (setting [9]), 99% in series [3] (setting [8]) and 99% in series [3] (setting [10]).

`CC[C@H](C)[C@H]1NC(=O)[C@@H](NC(=O)[C@@H](CC(C)C)N(C)C(=O)[C@@H]2CCCN2C(=O)C(=O)Cc2ccccc2)[C@@H](C)OC(=O)[C@H](Cc2ccc(OC)cc2)N(C)C(=O)[C@@H]2CCCN2C(=O)[C@H](CC(C)C)NC(=O)[C@@H](C)C(=O)[C@H](C(C)C)OC(=O)C[C@@H]1O` [Phepyruv-Pro-DA, PhePyruv-Pro Didemnin A] (X5-P[dNMeL]T[X1]LP[NMeY](Me); ester 3-C): the “% Protection” value in series [1] is “I”. In series [5], half-maximal inhibition (IC50) was put at 3.5 ng/mL (≈ 2.95 nM) and the “cytotoxicity compared with DDB” value is “only partially active”.

As to Nordidemnin A [Nordidemnin A (21)], the “VIV Protection” value in series [1] (Table 9, 0.1 μg/mL) is listed as below 0%. In addition, the “Cytotoxicity L1210 IC50” value in series [2] came out at 30 ng/mL.

On to `CC[C@H](C)[C@H]1NC(=O)[C@@H](NC(=O)[C@@H](CC(C)C)NC)[C@@H](C)OC(=O)[C@H](CC2CCC(OC)CC2)N(C)C(=O)[C@@H]2CCCN2C(=O)[C@H](CC(C)C)NC(=O)[C@@H](C)C(=O)[C@H](C(C)C)OC(=O)C[C@@H]1O` (some centres unmarked) [[H6 Me2 Tyr^5]didemnin A (115), [HexahydroMe2 Tyr^5]didemnin A], for which the “Inhibition (%)” value is given as 17% in series [3] (setting [9]) and 94% in series [3] (setting [10]).

For Didemnin D [Didemnin D (19)], the “VIV Protection” value in series [1] is listed as -53. Moreover, the “Cytotoxicity L1210 IC50” value in series [2] is 0.5 ng/mL.

`CCCCCCCCCCCCCCCCCC(=O)N(C)[C@H](CC(C)C)C(=O)N[C@@H]1C(=O)N[C@H]([C@@H](C)CC)[C@@H](O)CC(=O)O[C@@H](C(C)C)C(=O)[C@H](C)C(=O)N[C@@H](CC(C)C)C(=O)N2CCC[C@H]2C(=O)N(C)[C@@H](Cc2ccc(OC)cc2)C(=O)O[C@@H]1C` [stearoyl, N-stearoyl didemnin A] (Stearoyl-[dNMeL]T[X1]LP[NMeY](Me); ester 2-C): in series [4], the “cytotoxicity (result in words)” value is “inactive”.

With `CC[C@H](C)[C@H]1NC(=O)[C@@H](NC(=O)[C@@H](CC(C)C)N(C)C(=O)[C@@H]2CCCN2C(=O)[C@H](C)OC(=O)[C@@H]2CCC(=O)N2)[C@@H](C)OC(=O)[C@H](Cc2ccc(OC)cc2)N(C)C(=O)[C@@H]2CCCN2C(=O)[C@H](CC(C)C)NC(=O)[C@@H](C)C(=O)[C@H](C(C)C)OC(=O)C[C@@H]1O` [pGlu-didemnin B (113), O-Pyroglutamyldidemnin B] ([pGlu][Lac]P[dNMeL]T[X1]LP[NMeY](Me); ester 5-C), in series [1], the “VIV Protection” value is reported as -65. Besides, the “Cytotoxicity L1210 IC50” value in series [2] came out at 0.4 ng/mL.

In the case of `CC[C@H](C)[C@H]1NC(=O)[C@@H](NC(=O)[C@@H](CC(C)C)NC)[C@@H](C)OC(=O)[C@H](CC2CCCCC2)N(C)C(=O)[C@@H]2CCCN2C(=O)[C@H](CC(C)C)NC(=O)[C@@H](C)C(=O)[C@H](C(C)C)OC(=O)C[C@@H]1O` [[H6 -N-MePhe^5] didemnin A (117), [Hexahydro-N-MePhe^5]didemnin A] (H-[dNMeL]T[X1]LP[NMeCha]; ester 2-C), the “Inhibition (%)” value in series [3] (setting [7]) is 25%; in series [3] (setting [9]), 75%; in series [3] (setting [8]), 94%; in series [3] (setting [10]), 98%.

As for `CCCCCCCC(=O)N(C)[C@H](CC(C)C)C(=O)N[C@@H]1C(=O)N[C@H]([C@@H](C)CC)[C@@H](O)CC(=O)O[C@@H](C(C)C)C(=O)[C@H](C)C(=O)N[C@@H](CC(C)C)C(=O)N2CCC[C@H]2C(=O)N(C)[C@@H](Cc2ccc(OC)cc2)C(=O)O[C@@H]1C` [N^a -Octanoyl-, N-octanoyl didemnin A] (Octanoyl-[dNMeL]T[X1]LP[NMeY](Me); ester 2-C), the “cytotoxicity (result in words)” value in series [4] is on record as “retained the cytotoxicity of didemnin B”. Besides, the “Cytotoxicity percent L1210 inhibition” value in series [4] (dose 5 ng/mL) turned out to be 89%; in series [4] (dose 12.5 ng/mL), 93%; in series [4] (dose 25 ng/mL), 94%.

Regarding Isodidemnin A1 [Isodidemnin A1 (1a)], in series [1], the “VIV Protection” value is on record as below 0. Besides, in series [2], the “Cytotoxicity L1210 IC50” value worked out at 10 ng/mL.

For the compound “N-(CH3 ONsu)didemnin A [N-(CH3 ONsu)-didemnin A (111)]”, the “VIV Protection” value in series [1] is recorded as -43.

With Didemnin Y [Didemnin Y (11)], the “VIV Protection” value in series [1] is on record as -33. The “Cytotoxicity L1210 IC50” value in series [2] is listed as 2 ng/mL.

With [AnhydroIst^1 ]Phthalimide didemnin B, the entries for the “Inhibition (%)” value in series [3] (setting [7]) and in series [3] (setting [8]) were 81% and 99%, respectively.

Turning to `CCCCCCCCCCCC(=O)N(C)[C@H](CC(C)C)C(=O)N[C@@H]1C(=O)N[C@H]([C@@H](C)CC)[C@@H](O)CC(=O)O[C@@H](C(C)C)C(=O)[C@H](C)C(=O)N[C@@H](CC(C)C)C(=O)N2CCC[C@H]2C(=O)N(C)[C@@H](Cc2ccc(OC)cc2)C(=O)O[C@@H]1C` [lauroyl, N-lauroyl didemnin A] (Lauroyl-[dNMeL]T[X1]LP[NMeY](Me); ester 2-C), the “cytotoxicity (result in words)” value in series [4] was “inactive”.

Didemnin X [Didemnin X (10)]: in series [1], the “VIV Protection” value is -25. In series [2], the “Cytotoxicity L1210 IC50” value is listed as 2 ng/mL.

For Didemnin E [Didemnin E (20)], in series [1], the “VIV Protection” value is on record as -73. For the same compound, the “Cytotoxicity L1210 IC50” value in series [2] is recorded as 0.5 ng/mL.

For the compound `CCCCCC(=O)N(C)[C@H](CC(C)C)C(=O)N[C@@H]1C(=O)N[C@H]([C@@H](C)CC)[C@@H](O)CC(=O)O[C@@H](C(C)C)C(=O)[C@H](C)C(=O)N[C@@H](CC(C)C)C(=O)N2CCC[C@H]2C(=O)N(C)[C@@H](Cc2ccc(OC)cc2)C(=O)O[C@@H]1C` [N^a -Hexanoyl-, N-hexanoyl didemnin A] (Hexanoyl-[dNMeL]T[X1]LP[NMeY](Me); ester 2-C), in series [4], the “cytotoxicity (result in words)” value was “retained the cytotoxicity of didemnin B”. Besides, the “Cytotoxicity percent L1210 inhibition” value was 73% in series [4] (dose 5 ng/mL), 89% in series [4] (dose 12.5 ng/mL) and 92% in series [4] (dose 25 ng/mL).

For `CC[C@H](C)[C@H]1NC(=O)[C@@H](NC(=O)[C@@H](CC(C)C)N(C)C(=O)[C@@H]2CCCN2C(C)=O)[C@@H](C)OC(=O)[C@H](Cc2ccc(OC)cc2)N(C)C(=O)[C@@H]2CCCN2C(=O)[C@H](CC(C)C)NC(=O)[C@@H](C)C(=O)[C@H](C(C)C)OC(=O)C[C@@H]1O` [[Acetyl^9]Didemnin B (103), [Acetyl^9]didemnin B] (Ac-P[dNMeL]T[X1]LP[NMeY](Me); ester 3-C), the “Inhibition of [3H]didemnin B binding (%)” value in series [6] (0.001 μg/mL) is 3%; in series [6] (0.01 μg/mL), 2%; in series [6] (0.1 μg/mL), 67%; in series [6] (1 μg/mL), 85%. For the same compound, the “VIV Protection” value in series [1] was -123. For the same compound, the “Cytotoxicity L1210 IC50” value in series [2] amounted to 0.2 ng/mL.
